{"source": "patent US6372297B1", "about": "“Wood preservative oxathiazines” (Uniroyal Chemical Company, Inc., priority 1993, dated 2002)", "key": {"[1]": {"test_system": "Enterobacter aerogenes", "assay": "Wood preservative efficacy against bacteria and yeasts, tryptose agar plates", "format": "cell-based", "parameters": "key: 0 = growth equal to control, 1 = inhibition, 2 = no growth", "protocol": "Compositions were prepared by dissolving the compounds shown in Table 1 in 50% ethanol and further diluting with sterile distilled water. […] After cooling, the medium was inoculated with the bacteria listed below. After sufficient growth of the untreated cultures, the compounds were evaluated using the following rating system: 0=growth equal to control 1=inhibition of growth by the compound 2=no growth under the influence of the compound. In this Table, the higher numbers are the most preferred species. Enterobacter aerogenes (gram neg)"}, "[2]": {"test_system": "Bacillus cereus mycoides", "format": "cell-based", "parameters": "scale not given here"}, "[3]": {"test_system": "Pseudomonas aeruginosa", "assay": "Wood preservative efficacy against bacteria and yeasts, tryptose agar plates", "format": "cell-based", "parameters": "key: 0 = growth equal to control, 1 = growth inhibited, 2 = no growth", "conditions": "100 ppm in tryptose agar", "protocol": "Compositions were prepared by dissolving the compounds shown in Table 1 in 50% ethanol and further diluting with sterile distilled water. […] After cooling, the medium was inoculated with the bacteria listed below. After sufficient growth of the untreated cultures, the compounds were evaluated using the following rating system: 0=growth equal to control 1=inhibition of growth by the compound 2=no growth under the influence of the compound. In this Table, the higher numbers are the most preferred species. Pseudomonas aeruginosa (gram neg)"}, "[4]": {"test_system": "Flavobacterium sp.", "assay": "Wood preservative efficacy against bacteria and yeasts, tryptose agar plates", "format": "cell-based", "parameters": "key: 0 = growth equal to control, 1 = growth inhibited, 2 = no growth", "protocol": "Compositions were prepared by dissolving the compounds shown in Table 1 in 50% ethanol and further diluting with sterile distilled water. […] After cooling, the medium was inoculated with the bacteria listed below. After sufficient growth of the untreated cultures, the compounds were evaluated using the following rating system: 0=growth equal to control 1=inhibition of growth by the compound 2=no growth under the influence of the compound. In this Table, the higher numbers are the most preferred species. Flavobacterium sp. (gram neg)"}, "[5]": {"test_system": "Streptomyces albus", "assay": "Wood preservative efficacy against bacteria and yeasts, tryptose agar plates", "format": "cell-based", "parameters": "key: 0 = growth equal to control, 1 = inhibition, 2 = no growth", "protocol": "Compositions were prepared by dissolving the compounds shown in Table 1 in 50% ethanol and further diluting with sterile distilled water. […] After cooling, the medium was inoculated with the bacteria listed below. After sufficient growth of the untreated cultures, the compounds were evaluated using the following rating system: 0=growth equal to control 1=inhibition of growth by the compound 2=no growth under the influence of the compound. In this Table, the higher numbers are the most preferred species. Streptomyces albus (gram pos)"}, "[6]": {"test_system": "Debaryomyces hansenii", "assay": "Wood preservative efficacy against bacteria and yeasts, tryptose agar plates", "format": "cell-based", "parameters": "key: 0 = growth equal to control, 1 = inhibition, 2 = no growth", "protocol": "Compositions were prepared by dissolving the compounds shown in Table 1 in 50% ethanol and further diluting with sterile distilled water. […] After cooling, the medium was inoculated with the bacteria listed below. After sufficient growth of the untreated cultures, the compounds were evaluated using the following rating system: 0=growth equal to control 1=inhibition of growth by the compound 2=no growth under the influence of the compound. In this Table, the higher numbers are the most preferred species. Debaryomyces hansenii (yeast)"}, "[7]": {"test_system": "Pseudomonas alcaligenes", "assay": "Wood preservative efficacy against bacteria and yeasts, tryptose agar plates", "format": "cell-based", "parameters": "key: 0 = growth equal to control, 1 = inhibition, 2 = no growth", "conditions": "100 ppm in tryptose agar", "protocol": "Compositions were prepared by dissolving the compounds shown in Table 1 in 50% ethanol and further diluting with sterile distilled water. […] After cooling, the medium was inoculated with the bacteria listed below. After sufficient growth of the untreated cultures, the compounds were evaluated using the following rating system: 0=growth equal to control 1=inhibition of growth by the compound 2=no growth under the influence of the compound. In this Table, the higher numbers are the most preferred species. Pseudomonas alcaligenes (gram neg)"}, "[8]": {"test_system": "Escherichia coli", "assay": "Wood preservative efficacy against bacteria and yeasts, tryptose agar plates", "format": "cell-based", "parameters": "key: 0 = growth equal to control, 1 = growth inhibited, 2 = no growth", "protocol": "Compositions were prepared by dissolving the compounds shown in Table 1 in 50% ethanol and further diluting with sterile distilled water. […] After cooling, the medium was inoculated with the bacteria listed below. After sufficient growth of the untreated cultures, the compounds were evaluated using the following rating system: 0=growth equal to control 1=inhibition of growth by the compound 2=no growth under the influence of the compound. In this Table, the higher numbers are the most preferred species. Escherichia coli ([…])"}, "[9]": {"test_system": "Coriolus versicolor", "assay": "Wood preservative efficacy against fungi, agar plate colony diameter", "format": "cell-based", "conditions": "10 ppm, Table 6B", "protocol": "(§1) Each plate was inoculated with a spore suspension or with a small piece of agar (1 mm) from the margin of an actively growing colony of the test fungus. The fungi employed are listed below. After incubation at 22° C. and 70% relative humidity during a period long enough to allow significant growth of untreated controls, the diameters of the fungus colonies were measured and scored using the following rating system: 0=free of fungal growth 1=25% of fungal growth compared to untreated 2=50% of fungal growth compared to untreated 3=75% of fungal growth compared to untreated 4=Growth equal to that of untreated The scores measured for wood preservation efficacy of the compounds of this invention are listed in Tables 6a and 6b. In these Tables, the lower numbers are the most preferred species. Coriolus versicolor"}, "[10]": {"test_system": "Chaetomium globosum", "assay": "Wood preservative efficacy against fungi, agar plate colony diameter", "format": "cell-based", "conditions": "10 ppm, Table 6B", "protocol": "as §1, with “Chaetomium globosum” for “Coriolus versicolor”"}, "[11]": {"test_system": "Coniophora puteana", "assay": "Wood preservative efficacy against fungi, agar plate colony diameter", "format": "cell-based", "parameters": "key: 0 = no fungal growth, 1-3 = 25/50/75% of untreated, 4 = equal", "conditions": "10 ppm, Table 6B", "protocol": "as §1, with “Coniophora puteana (syn. C. cerebella)” for “Coriolus versicolor”"}, "[12]": {"test_system": "Aspergillus flavus", "assay": "Wood preservative efficacy against fungi, agar plate colony diameter", "format": "cell-based", "conditions": "10 ppm, Table 6B", "protocol": "as §1, with “Aspergillus flavus” for “Coriolus versicolor”"}, "[13]": {"test_system": "Mucor sp.", "assay": "Wood preservative efficacy against fungi, agar plate colony diameter", "format": "cell-based", "conditions": "100 ppm, Table 6B", "protocol": "as §1, with “Mucor sp.” for “Coriolus versicolor”"}}, "note": "Like-named read-outs stand apart in the source and are kept apart here."}
{"compound": "C[S+]1CCON=C1c1ccc(Cl)cc1Cl", "note": "(stereo not shown) [Compound 2]", "values": [{"measurement": "Score of bactericidal activity, E. aerogenes", "setting": "[1]; 100 ppm in tryptose agar", "result": 0}, {"measurement": "Score of bactericidal activity, B. cereus mycoides", "setting": "[2]; 10 ppm in tryptose agar", "result": 0}, {"measurement": "Score of bactericidal activity, B. cereus mycoides", "setting": "[2]; 100 ppm in tryptose agar", "result": 2}, {"measurement": "Score of bactericidal activity, P. aeruginosa", "setting": "[3]", "result": 0}, {"measurement": "Score of bactericidal activity, Flavobacter", "setting": "[4]; 100 ppm in tryptose agar", "result": 2}, {"measurement": "Score of bactericidal activity, S. albus", "setting": "[5]; 100 ppm in tryptose agar", "result": 0}, {"measurement": "Score of bactericidal activity, D. hansenii", "setting": "[6]; 10 ppm in tryptose agar", "result": 2}, {"measurement": "Score of bactericidal activity, D. hansenii", "setting": "[6]; 100 ppm in tryptose agar", "result": 2}, {"measurement": "Score of bactericidal activity, P. alcalgenes", "setting": "[7]", "result": 0}, {"measurement": "Score of bactericidal activity, E. Coli", "setting": "[8]; 100 ppm in tryptose agar", "result": 0}]}
{"compound": "C[S+]1CCON=C1c1cccc(C(F)(F)F)c1", "note": "(stereo not shown) [Compound 13]", "values": [{"measurement": "Score of bactericidal activity, E. aerogenes", "setting": "[1]; 100 ppm in tryptose agar", "result": 0}, {"measurement": "Score of bactericidal activity, B. cereus mycoides", "setting": "[2]; 10 ppm in tryptose agar", "result": 2}, {"measurement": "Score of bactericidal activity, B. cereus mycoides", "setting": "[2]; 100 ppm in tryptose agar", "result": 2}, {"measurement": "Score of bactericidal activity, P. aeruginosa", "setting": "[3]", "result": 0}, {"measurement": "Score of bactericidal activity, Flavobacter", "setting": "[4]; 100 ppm in tryptose agar", "result": 2}, {"measurement": "Score of bactericidal activity, S. albus", "setting": "[5]; 100 ppm in tryptose agar", "result": 2}, {"measurement": "Score of bactericidal activity, D. hansenii", "setting": "[6]; 10 ppm in tryptose agar", "result": 2}, {"measurement": "Score of bactericidal activity, D. hansenii", "setting": "[6]; 100 ppm in tryptose agar", "result": 2}, {"measurement": "Score of bactericidal activity, P. alcalgenes", "setting": "[7]", "result": 0}, {"measurement": "Score of bactericidal activity, E. Coli", "setting": "[8]; 100 ppm in tryptose agar", "result": 2}]}
{"compound": "C[S+]1CCON=C1c1c(Cl)cccc1Cl", "note": "(stereo not shown) [Compound 15]", "values": [{"measurement": "Score of bactericidal activity, E. aerogenes", "setting": "[1]; 100 ppm in tryptose agar", "result": 0}, {"measurement": "Score of bactericidal activity, B. cereus mycoides", "setting": "[2]; 10 ppm in tryptose agar", "result": 0}, {"measurement": "Score of bactericidal activity, B. cereus mycoides", "setting": "[2]; 100 ppm in tryptose agar", "result": 1}, {"measurement": "Score of bactericidal activity, P. aeruginosa", "setting": "[3]", "result": 0}, {"measurement": "Score of bactericidal activity, Flavobacter", "setting": "[4]; 100 ppm in tryptose agar", "result": 0}, {"measurement": "Score of bactericidal activity, S. albus", "setting": "[5]; 100 ppm in tryptose agar", "result": 0}, {"measurement": "Score of bactericidal activity, D. hansenii", "setting": "[6]; 10 ppm in tryptose agar", "result": 0}, {"measurement": "Score of bactericidal activity, D. hansenii", "setting": "[6]; 100 ppm in tryptose agar", "result": 1}, {"measurement": "Score of bactericidal activity, P. alcalgenes", "setting": "[7]", "result": 0}, {"measurement": "Score of bactericidal activity, E. Coli", "setting": "[8]; 100 ppm in tryptose agar", "result": 0}]}
{"compound": "C[S+]1CCON=C1c1ccccc1", "note": "(stereo not shown) [Compound 17]", "values": [{"measurement": "Score of bactericidal activity, E. aerogenes", "setting": "[1]; 10 ppm in tryptose agar", "result": 0}, {"measurement": "Score of bactericidal activity, E. aerogenes", "setting": "[1]; 100 ppm in tryptose agar", "result": 0}, {"measurement": "Score of bactericidal activity, B. cereus mycoides", "setting": "[2]; 10 ppm in tryptose agar", "result": 0}, {"measurement": "Score of bactericidal activity, B. cereus mycoides", "setting": "[2]; 100 ppm in tryptose agar", "result": 0}, {"measurement": "Score of fungicidal activity, G. VERSICLOR", "setting": "[9]", "result": 4}, {"measurement": "Score of bactericidal activity, P. aeruginosa", "setting": "[3]", "result": 0}, {"measurement": "Score of bactericidal activity, Flavobacter", "setting": "[4]; 10 ppm in tryptose agar", "result": 0}, {"measurement": "Score of bactericidal activity, Flavobacter", "setting": "[4]; 100 ppm in tryptose agar", "result": 0}, {"measurement": "Score of bactericidal activity, S. albus", "setting": "[5]; 10 ppm in tryptose agar", "result": 0}, {"measurement": "Score of bactericidal activity, S. albus", "setting": "[5]; 100 ppm in tryptose agar", "result": 0}, {"measurement": "Score of fungicidal activity, C. GLOBOSUM", "setting": "[10]", "result": 4}, {"measurement": "Score of fungicidal activity, C. PUTEANA", "setting": "[11]", "result": 4}, {"measurement": "Score of fungicidal activity, A. FLAVUS", "setting": "[12]", "result": 4}, {"measurement": "Score of bactericidal activity, P. alcalgenes", "setting": "[7]", "result": 0}, {"measurement": "Score of fungicidal activity, MUCOR SP", "setting": "[13]", "result": 4}, {"measurement": "Score of bactericidal activity, E. Coli", "setting": "[8]; 10 ppm in tryptose agar", "result": 0}, {"measurement": "Score of bactericidal activity, E. Coli", "setting": "[8]; 100 ppm in tryptose agar", "result": 0}]}
{"compound": "CC1CSC(c2cccs2)=NO1", "note": "(stereo not shown) [Compound 52, 5,6-dihydro-6-methyl-3-(2-thienyl)-1,4,2-oxathiazine]", "values": [{"measurement": "melting point", "result": "70 to 72", "unit": "°C"}]}
{"compound": "Clc1ccc(C2=NOCCS2)s1", "note": "[Compound 59, 3-(5-chloro-2-thienyl)-5,6-dihydro-1,4,2-oxathiazine]", "values": [{"measurement": "melting point", "result": "74 to 77", "unit": "°C"}]}
